Where “and” joins values, the source holds several entries; their conditions need not be identical. Equal entries are not always repeated.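 At the GI50, growth is halved. TGI marks complete inhibition of growth.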
Experiments:
Test in all cases: growth of human tumour cells (NCI), 384-well format
SW-620 colon = tested on: SW-620 colon
UACC-62 melanoma = tested on: UACC-62 melanoma
SF-539 CNS = tested on: SF-539 CNS
IGROV1 ovarian = tested on: IGROV1 ovarian
SNB-19 CNS = tested on: SNB-19 CNS
A549 NSCLC = tested on: A549 NSCLC
MDA-MB-231 breast = tested on: MDA-MB-231 breast
SNB-75 CNS = tested on: SNB-75 CNS
ACHN renal = tested on: ACHN renal
T-47D breast = tested on: T-47D breast
UO-31 renal = tested on: UO-31 renal
LOX IMVI melanoma = tested on: LOX IMVI melanoma
EKVX NSCLC = tested on: EKVX NSCLC
HCT-15 colon = tested on: HCT-15 colon
RPMI-8226 leukemia = tested on: RPMI-8226 leukemia
U251 glioblastoma = tested on: U251 glioblastoma
HOP-62 NSCLC = tested on: HOP-62 NSCLC
M14 melanoma = tested on: M14 melanoma
OVCAR-8 ovarian = tested on: OVCAR-8 ovarian
OVCAR-3 ovarian = tested on: OVCAR-3 ovarian
SK-MEL-28 melanoma = tested on: SK-MEL-28 melanoma
MCF7 breast = tested on: MCF7 breast
MDA-MB-468 breast = tested on: MDA-MB-468 breast
HL-60(TB) leukemia = tested on: HL-60(TB) leukemia
MALME-3M melanoma = tested on: MALME-3M melanoma
CCRF-CEM leukemia = tested on: CCRF-CEM leukemia
NCI-H23 lung = tested on: NCI-H23 lung
786-0 renal = tested on: 786-0 renal
OVCAR-4 ovarian = tested on: OVCAR-4 ovarian

Cc1cc(C(=O)NC(CCC(=O)O)C(=O)O)sc1CCC1CNc2nc(N)[nH]c(=O)c2C1 (stereo not drawn)
GI50 (SW-620 colon): < 0.01 µM and 0.0133 µM
TGI (SW-620 colon): 0.0211 µM and 0.0356 µM
GI50 (UACC-62 melanoma): 0.0113 µM and 0.0256 µM
TGI (UACC-62 melanoma): 0.0594 µM and 0.0751 µM
GI50 (SF-539 CNS): < 0.01 µM
TGI (SF-539 CNS): < 0.01 µM and 0.0205 µM
GI50 (IGROV1 ovarian): 0.0197 µM and 0.0203 µM
TGI (IGROV1 ovarian): 0.0409 µM and 0.0438 µM
GI50 (SNB-19 CNS): < 0.01 µM and 0.013 µM
TGI (SNB-19 CNS): < 0.01 µM and 0.0301 µM
GI50 (A549 NSCLC): 0.0201 µM and 0.0242 µM
TGI (A549 NSCLC): 0.0428 µM and 0.061 µM
GI50 (MDA-MB-231 breast): 0.388 µM and 1.68 µM
TGI (MDA-MB-231 breast): 1.43 µM and 3.46 µM
GI50 (SNB-75 CNS): < 0.01 µM
TGI (SNB-75 CNS): < 0.01 µM and 0.0143 µM
GI50 (ACHN renal): < 0.01 µM and 0.0196 µM
TGI (ACHN renal): < 0.01 µM and 0.0431 µM
GI50 (T-47D breast): 0.0238 µM and 0.0303 µM
TGI (T-47D breast): > 100 µM
GI50 (UO-31 renal): < 0.01 µM and 0.0187 µM
TGI (UO-31 renal): < 0.01 µM and 0.0391 µM
GI50 (LOX IMVI melanoma): 0.0194 µM and 0.02 µM
TGI (LOX IMVI melanoma): 0.0407 µM and 0.0444 µM
GI50 (EKVX NSCLC): 0.012 µM and 0.0171 µM
TGI (EKVX NSCLC): 0.0288 µM and 0.0361 µM
GI50 (HCT-15 colon): 0.025 µM and 0.0314 µM
TGI (HCT-15 colon): 0.0733 µM and 0.158 µM
GI50 (RPMI-8226 leukemia): 0.0177 µM and 0.0171 µM
TGI (RPMI-8226 leukemia): 0.0354 µM and 0.036 µM
GI50 (U251 glioblastoma): < 0.01 µM and 0.0164 µM
TGI (U251 glioblastoma): 0.0229 µM and 0.0335 µM
GI50 (HOP-62 NSCLC): 0.0182 µM
TGI (HOP-62 NSCLC): 0.0346 µM and 0.0358 µM
GI50 (M14 melanoma): < 0.01 µM
TGI (M14 melanoma): < 0.01 µM and 0.0228 µM
GI50 (OVCAR-8 ovarian): < 0.01 µM
TGI (OVCAR-8 ovarian): < 0.01 µM and 0.0116 µM
GI50 (OVCAR-3 ovarian): 0.0217 µM and 0.029 µM
TGI (OVCAR-3 ovarian): 0.0539 µM and 0.0826 µM
GI50 (SK-MEL-28 melanoma): 0.0132 µM and 0.0169 µM
TGI (SK-MEL-28 melanoma): 0.0296 µM and 0.0347 µM
GI50 (MCF7 breast): < 0.01 µM and 0.0175 µM
TGI (MCF7 breast): 0.028 µM and 0.0477 µM
GI50 (MDA-MB-468 breast): 0.0175 µM and 0.0176 µM
TGI (MDA-MB-468 breast): 0.0339 µM and 0.0375 µM
GI50 (HL-60(TB) leukemia): < 0.01 µM
TGI (HL-60(TB) leukemia): < 0.01 µM and 0.0141 µM
GI50 (MALME-3M melanoma): 0.016 µM and 0.0198 µM
TGI (MALME-3M melanoma): 0.0358 µM and 0.0411 µM
GI50 (CCRF-CEM leukemia): < 0.01 µM
TGI (CCRF-CEM leukemia): 0.0118 µM and 0.0186 µM
GI50 (NCI-H23 lung): 0.029 µM and 0.15 µM
TGI (NCI-H23 lung): 0.0854 µM and 0.401 µM
GI50 (786-0 renal): < 0.01 µM
TGI (786-0 renal): < 0.01 µM
GI50 (OVCAR-4 ovarian): 0.0205 µM and 0.022 µM
TGI (OVCAR-4 ovarian): 0.0881 µM and 0.0707 µM
